# Source: US20230082968A1, “EXOGENOUS NITRIC OXIDE FOR IMPROVED SUSCEPTIBILITY AND LOWERED ANTIBIOTIC RESISTANCE IN RESISTANT RESPIRATORY BACTERIA” (The University of North Carolina at Chapel Hill, priority 2020, published 2023)
# Entries after “also recorded” stand apart in the source; their conditions may differ.
# How the values were obtained:
# PAK = assay: Nitric oxide pretreatment with planktonic bacteria; format: cell-based, Pseudomonas aeruginosa; details: antibiotic 2 µg/mL, NO-pretreatment 25% MIC 4 h
# Method: (§1) After exposure, wells were serially diluted in sterile MilliQ water and spiral plated on TSA. Viability was assessed by colony counting.
# AR 229 = assay: Nitric oxide pretreatment with planktonic bacteria; format: cell-based, P. aeruginosa; details: AR 229, antibiotic 0.625 µg/mL, NO-pretreatment 25% MIC 4 h
# Method: as §1
# AR 237 = assay: Nitric oxide pretreatment with planktonic bacteria; format: cell-based, P. aeruginosa; details: AR 237, antibiotic 0.625 µg/mL, NO-pretreatment 25% MIC 4 h
# Method: as §1
# ATCC S.aureus = assay: Nitric oxide pretreatment with planktonic bacteria; format: cell-based, Staphylococcus aureus
# Method: as §1
# ATCC BCC = assay: Nitric oxide pretreatment with planktonic bacteria; format: cell-based, Burkholderia cepacia complex
# Method: as §1
# PAK biofilm = assay: Biofilm pretreatment with nitric oxide; format: cell-based, Pseudomonas aeruginosa
# Method: (§2) Bacteria were cultured to a concentration of 10^8 CFU/mL in TSB and diluted to 10^6 CFU/mL in 200 µL TSB in a 96 well plate. Plates were incubated with shaking for 3 days until a non-surface attached viscous aggregate formed that was easily separated from growth medium. Biofilms (100 µL) were removed, gently injected into PBS (200 µL) to remove loosely adhered planktonic cells, and added to a sterile 96 well plate. To the wells, PBS or test agent dissolved in PBS (100 µL) was added and incubated with shaking for 24 h. The biofilm (100 µL) was removed from the well plate, added to 900 µL sterile MilliQ water, and disrupted with pipetting and vortexing. Disrupted biofilms were serially diluted and spiral plated on TSA. Viability was assessed with colony counting. The minimum biofilm eradication concentration (MBEC) was defined as the lowest concentration of test agent required to reduce viability by 5-log (i.e., 10^8 to 10^3 CFU/mL).
# (§3) The biofilm was then removed from its 96 well plate, added to a new 96 well plate containing tobramycin dissolved in PBS (100 µL), and incubated for 20 h. The biofilm was disrupted in 900 µL sterile MilliQ water with pipetting and vortexing, serially diluted, and spiral plated on TSA. Viability was assessed with colony counting.
# P. aeruginosa biofilms = assay: Biofilm pretreatment with nitric oxide, all tested biofilms; format: cell-based; details: all tested P. aeruginosa biofilms incl. tobramycin-resistant strains, COS/NO at 25% MBEC for 4 h
# Method: as §2, §3
# ATCC MRSA = assay: Serial passaging resistance assay; format: cell-based, Methicillin-resistant S. aureus
# Method: Bacteria at a final concentration of 10^6 CFU/mL in TSB were incubated with serial dilutions of COS/NO and/or tobramycin for 24 h. Growth was assessed by measuring absorbance at 600 nm. The wells that had the highest concentration of test agent and an OD600 corresponding to more than 10^8 CFU/mL were diluted to 10^6 cfu/mL in TSB and incubated with fresh solutions of COS/NO or tobramycin for 24 h. A single passage was defined as one exposure, incubation, and subsequent dilution. Bacteria were passaged for up to 70 days.
# [1] = tobramycin 16 µg/mL, NO-pretreatment 4 h
smiles,measurement,setting,value
NC[C@H]1O[C@H](O[C@H]2[C@H](O)[C@@H](O[C@H]3O[C@H](CO)[C@@H](O)[C@H](N)[C@H]3O)[C@H](N)C[C@@H]2N)[C@H](N)C[C@@H]1O [Tobramycin],Classification,PAK,Synergistic
same,Log Difference in bacteria viability with vs without NO-pretreatment,PAK,3.00 log
same,Classification,AR 229,Synergistic
same,Log Difference in bacteria viability with vs without NO-pretreatment,AR 229,4.08 log
same,Classification,AR 237,Synergistic
same,Log Difference in bacteria viability with vs without NO-pretreatment,AR 237,3.70 log
same,tobramycin-susceptibility with the addition of NO,"ATCC S.aureus; ATCC S. aureus, NO-pretreatment",significant improvement
same,Log Difference in bacteria viability with vs without NO-pretreatment,"ATCC S.aureus; ATCC S.aureus, antibiotic […], NO-pretreatment 25% MIC 4 h",4.88 log
same,Log Difference in bacteria viability with vs without NO-pretreatment,"ATCC BCC; ATCC BCC, antibiotic […], NO-pretreatment 25% MIC 4 h",5.23 log
same,tobramycin-susceptibility with the addition of NO,"ATCC BCC; B. cepacia complex, NO-pretreatment",significant improvement
same,changes in tobramycin-susceptibility of biofilm,PAK biofilm; NO-pretreatment lasting less than 4 h,Minimal changes
same,Classification,PAK biofilm; [1],Synergistic
same,Log Difference in biofilm viability with vs without NO-pretreatment,PAK biofilm; [1],4.71 log
same,tobramycin susceptibility of biofilms after NO-pretreatment,P. aeruginosa biofilms,significantly more susceptible; also recorded: improved
same,MICn,"ATCC MRSA; ATCC MRSA, after n = 10 passages",16000 µg/mL
same,development of tobramycin-resistance,"ATCC MRSA; MRSA, concomitant delivery with COS/NO at 25% of its MIC",slowing or prevention
same,change of tobramycin MIC on parallel exposures,"ATCC MRSA; MRSA, tobramycin alone, serial passages",increases
same,MIC,"ATCC MRSA; Staphylococcus aureus, MRSA, read-out: MIC0",2000 µg/mL
